Test results published in ChEMBL document CHEMBL2086282, “2-Substituted 4,5-dihydrothiazole-4-carboxylic acids are novel inhibitors of metallo-β-lactamases” (Bioorg Med Chem Lett, 2012).

What was measured:
Beta-lactamase II [1] = biological target: T1, Beta-lactamase II (Bacillus anthracis, UniProt Q93T40)
T1 sequence (Q93T40 whole entry): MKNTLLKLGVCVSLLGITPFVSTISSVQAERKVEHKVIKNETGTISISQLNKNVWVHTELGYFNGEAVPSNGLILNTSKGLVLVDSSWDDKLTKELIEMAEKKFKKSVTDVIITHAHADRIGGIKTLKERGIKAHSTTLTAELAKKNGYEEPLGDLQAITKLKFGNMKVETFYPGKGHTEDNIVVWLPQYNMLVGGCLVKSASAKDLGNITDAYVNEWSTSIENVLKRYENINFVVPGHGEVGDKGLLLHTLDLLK

Beta-lactamase = Beta-lactamase (Pseudomonas aeruginosa, UniProt Q79MP6)
Chain of Beta-lactamase (Q79MP6 whole entry): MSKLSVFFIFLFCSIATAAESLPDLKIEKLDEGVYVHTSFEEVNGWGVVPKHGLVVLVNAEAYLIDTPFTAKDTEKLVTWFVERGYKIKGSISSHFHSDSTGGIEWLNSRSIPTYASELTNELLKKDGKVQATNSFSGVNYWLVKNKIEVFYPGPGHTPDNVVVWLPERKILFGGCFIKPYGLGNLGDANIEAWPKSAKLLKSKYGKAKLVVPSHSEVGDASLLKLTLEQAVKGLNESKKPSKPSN

Beta-lactamase II [2] = biological target: T1, Beta-lactamase II; remark: listed apart in the source

Compound	IC50 (Beta-lactamase II [1])	IC50 (Beta-lactamase)	IC50 (Beta-lactamase II [2])	Ki (Beta-lactamase II [1])
CC(=O)Nc1cccc(C2=N[C@H](C(=O)O)CS2)c1	> 200 µM	> 200 µM		
O=C(O)c1csc(Cc2ccccc2)n1	> 200 µM			
O=C(O)[C@@H]1CSC(c2ccc(Br)cc2)=N1	> 200 µM	> 200 µM		
CC(C)(C)OC(=O)NCC1=N[C@H](C(=O)O)CS1	> 200 µM	> 200 µM		
O=C(O)[C@@H]1CSC(c2ccc(Cl)cc2)=N1	> 200 µM	> 200 µM		
O=C(O)[C@@H]1CSC(c2ccccc2O)=N1	> 200 µM	> 200 µM		
O=C(O)c1csc(-c2ccccc2)n1	> 200 µM	> 200 µM		
O=C(O)[C@@H]1CSC(Cc2ccccc2)=N1	> 200 µM	> 200 µM		
O=C(NCC1=N[C@H](C(=O)O)CS1)OCc1ccccc1	> 200 µM	> 200 µM		
O=C(O)CN(CCN(CC(=O)O)CC(=O)O)CC(=O)O [EDETIC ACID]			1060 µM	
C[C@H](CS)C(=O)N1CCC[C@H]1C(=O)O [CAPTOPRIL]	25.8 µM			17.9 µM
CC(C)(C)OC(=O)Nc1cccc(C2=N[C@H](C(=O)O)CS2)c1	74.1 µM	> 200 µM		
O=C(O)[C@@H]1CSC(c2ccccc2)N1 (stereo partly drawn)	> 200 µM	> 200 µM		
O=C(Cc1ccccc1)NCC1=N[C@H](C(=O)O)CS1	> 200 µM	> 200 µM		
O=C(O)[C@@H]1CSC(Cc2ccccc2)N1 (stereo partly drawn)	> 200 µM	> 200 µM		
COc1cccc(CC(=O)NCC2=N[C@H](C(=O)O)CS2)c1	> 200 µM	> 200 µM		
Nc1cccc(C2=N[C@H](C(=O)O)CS2)c1	4.9 µM	77 µM		5.1 µM
